Results published in patent publication US7351728B2, “Oxazolyl-aryloxyacetic acid derivatives and their use as PPAR agonists” (Eli Lilly and Company, priority 2003, dated 2008).

How the values were obtained:
huPPARα = experiment: Cotransfection assay in CV-1 cells, luciferase reporter (GAL4 chimeric system); format: cell-based, human; details: cotransfection efficacy relative to PPARα agonist reference molecule
Method: (§1) DNA-dependent binding (ABCD binding) was carried out using SPA technology with PPAR receptors. Tritium-labeled PPARα and PPARγ agonists were used as radioligands for generating displacement curves and IC50 values with compounds of the invention. Cotransfection assays were carried out in CV-1 cells. The reporter plasmid contained an acylCoA oxidase (AOX) PPRE and TK promoter upstream of the luciferase reporter cDNA. Appropriate PPARs and RXRα were constitutively expressed using plasmids containing the CMV promoter. […] In order to eliminate such interference, a GAL4 chimeric system was used in which the DNA binding domain of the transfected PPAR was replaced by that of GAL4, and the GAL4 response element was utilized in place of the AOX PPRE. Cotransfection efficacy was determined relative to PPARα agonist and PPARγ agonist reference molecules. Efficacies were determined by computer fit to a concentration-response curve, or in some cases at a single high concentration of agonist (10 μM). For binding or cotransfection studies with receptors other than PPARs, similar assays were carried out using appropriate ligands, receptors, reporter constructs, etc., for that particular receptor.
(§2) These studies were carried out to evaluate the ability of compounds of the invention to bind to and/or activate various nuclear transcription factors, particularly huPPARα (“hu” indicates “human”) and huPPARγ. These studies provide in vitro data concerning efficacy and selectivity of compounds of the invention. Furthermore, binding and cotransfection data for compounds of the invention were compared with corresponding data for marketed compounds that act on either huPPARα or huPPARγ.
(§3) Binding and cotransfection data for representative compounds of the invention are compared with corresponding data for reference compounds in Table II.

HuapoAI transgenic mice = experiment: Evaluation of triglyceride and cholesterol level in HuapoAI transgenic mice; format: in vivo; details: for change in vivo at 30 mg/kg / inhibition in vivo at 30 mg/kg: Mus musculus, 168 h, 30 mg/kg daily oral gavage 7 days; for change in vivo at 30 mg/kg: percent increase in FPLC HDLc area under the curve; for inhibition in vivo at 30 mg/kg: serum, male human apoAI transgenic mice, read-out: % Triglyceride Reduction
Method: Five to six week old male mice, transgenic for human apoAI [C57Bl/6-tgn(apoa1)lrub, Jackson Laboratory, Bar Harbor, Me.] were housed five per cage (10″×20″×8″ with aspen chip bedding) with food (Purina 5001) and water available at all times. After an acclimation period of 2 weeks, animals were individually identified by ear notches, weighed, and assigned to groups based on body weight. Beginning the following morning, mice were dosed daily by oral gavage for 7 days using a 20 gauge, 1½″ curved disposable feeding needle (Popper & Sons). Treatments were test compounds (30 mg/kg), a positive control (fenofibrate, 100 mg/kg) or vehicle [1% carboxymethylcellulose (w/v)/0.25% Tween80 (w/v); 0.2 ml/mouse]. Prior to termination on day 7, mice were weighed and dosed. Three hours after dosing, animals were anesthetized by inhalation of isoflurane (2-4%; Abbott Laboratories, Chicago, Ill.) and blood obtained via cardiac puncture (0.7-1.0 ml). Whole blood was transferred to serum separator tubes (Vacutainer SST), chilled on ice, and permitted to clot. Serum was obtained after centrifugation at 4° C. and frozen until analysis for triglycerides, total cholesterol, compound levels, and serum lipoprotein profile by fast protein liquid chromatography (FPLC) coupled to an inline detection system. After sacrifice by cervical dislocation, the liver, heart and epididymal fat pads were excised and weighed.
The animals dosed with vehicle had average triglycerides values of 60-80 mg/dl, which were reduced by the positive control fenofibrate (33-58 mg/dl with a mean reduction of 37%). The animals dosed with vehicle had average total serum cholesterol values of 140-180 mg/dl, which were increased by fenofibrate (190-280 mg/dl, with a mean elevation of 41%). […] Fenofibrate increased the amount of HDLc (68-96 v-sec with a mean percent increase of 48%).
(§4) Glucose was measured colorimetrically using commercially purchased reagents (Sigma #315-500). According to the manufacturers, the procedures were modified from published work (McGowan, M. W., Artiss, J. D., Strandbergh, D. R. & Zak, B. Clin Chem, 20:470-5 (1974) and Keston, A. Specific colorimetric enzymatic analytical reagents for glucose. Abstract of papers 129th Meeting ACS, 31C (1956).); and depend on the release of a mole of hydrogen peroxide for each mole of analyte, coupled with a color reaction first described by Trinder (Trinder, P. Determination of glucose in blood using glucose oxidase with an alternative oxygen acceptor. Ann Clin Biochem, 6:24 (1969)). The absorbance of the dye produced is linearly related to the analyte in the sample. The assays were further modified in our laboratory for use in a 96 well format. Standards (Sigma #339-11, Sigma #16-11, and Sigma #CC0534 for glucose triglycerides and total cholesterol, respectively), quality control plasma (Sigma # A2034), and samples (2 or 5 μl/well) were measured in duplicate using 200 μl of reagent. An additional aliquot of sample, pipetted to a third well and diluted in 200 μl water, provided a blank for each specimen. Plates were incubated at room temperature (18, 15, and 10 minutes for glucose, triglycerides and total cholesterol, respectively) on a plate shaker (DPC Micormix 5) and absorbance read at 500 nm (glucose and total cholesterol) or 540 nm (triglycerides) on a plate reader (Wallac Victor 1420). Sample absorbances were compared to a standard curve (100-800, 10-500, and 100-400 mg/dl for glucose, triglycerides and total cholesterol, respectively). Values for the quality control sample were always within the expected range and the coefficient of variation for samples was below 10%. All samples from an experiment were assayed at the same time to minimize inter-assay variability.
Serum lipoproteins were separated and cholesterol quantitated with an in-line detection system. Sample was applied to a Superose® 6 HR 10/30 size exclusion column (Amersham Pharmacia Biotech) and eluted with phosphate buffered saline-EDTA at 0.5 ml/min. […]

db/db mice = experiment: Evaluation of glucose levels in db/db mice; format: in vivo; details: Mus musculus, 168 h; 30 mg/kg daily oral gavage 7 days, male db/db mice; 100% = lean values; read-out: Glucose Normalization %
Method: Five week old male diabetic (db/db) mice [C57BlKs/j-m +/+ Lepr(db), Jackson Laboratory, Bar Harbor, Me.] or lean littermates (db+) were housed 6 per cage (10″×20″×8″ with aspen chip bedding) with food (Purina 5015) and water available at all times. After an acclimation period of 2 weeks, animals were individually identified by ear notches, weighed, and bled via the tail vein for determination of initial glucose levels. Blood was collected (100 μl) from unfasted animals by wrapping each mouse in a towel, cutting the tip of the tail with a scalpel, and milking blood from the tail into a heparinized capillary tube (Fisher) balanced on the edge of the bench. Sample was discharged into a heparinized microtainer with gel separator (VWR) and retained on ice. Plasma was obtained after centrifugation at 4° C. and glucose measured immediately. Remaining plasma was frozen until the completion of the experiment, when glucose and triglycerides were assayed in all samples. Animals were grouped based on initial glucose levels and body weights. Beginning the following morning, mice were dosed daily by oral gavage for 7 days using a 20 gauge, 1½″ curved disposable feeding needle. Treatments were test compounds (30 mg/kg), a positive control agent (30 mg/kg) or vehicle [1% carboxymethylcellulose (w/v)/0.25% Tween80 (w/v); 0.3 ml/mouse]. On day 7, mice were weighed and bled (tail vein) 3 hours after dosing. Twenty-four hours after the 7th dose (i.e., day 8), animals were bled again (tail vein). Samples obtained from conscious animals on days 0, 7 and 8 were assayed for glucose. After the 24 hour bleed, animals were weighed and dosed for the final time. Three hours after dosing on day 8, animals were anesthetized by inhalation of isoflurane and blood obtained via cardiac puncture (0.5-0.7 ml). Whole blood was transferred to serum separator tubes, chilled on ice and permitted to clot. Serum was obtained after centrifugation at 4° C. and frozen until analysis for compound levels. After sacrifice by cervical dislocation, the liver, heart and epididymal fat pads were excised and weighed.
The animals dosed with vehicle had average triglycerides values of 170-230 mg/dl, which were reduced by the positive PPARγ control (70-120 mg/dl with a mean reduction of 50%). Male db/db mice were hyperglycemic (average glucose of 680-730 mg/dl on the 7th day of treatment), while lean animals had average glucose levels between 190-230 mg/dl.
as §4, with “Sample absorbances were compared to a standard curve (100-800, 10-500, and 100-400 mg/dl for glucose, triglycerides and total cholesterol, respectively). Values for the quality control sample were always within the expected range and the coefficient of variation for samples was below 10%. All samples from an experiment were assayed at the same time to minimize inter-assay variability.” left out

huPPARγ = target: T1, huPPARγ (Homo sapiens, UniProt P37231); experiment: Cotransfection assay in CV-1 cells, AOX PPRE luciferase reporter; format: cell-based; design: expressed in transfected cells; host or cells: CV-1 cells; details: cotransfection efficacy relative to PPARγ agonist reference molecule
T1 sequence (P37231 1-505): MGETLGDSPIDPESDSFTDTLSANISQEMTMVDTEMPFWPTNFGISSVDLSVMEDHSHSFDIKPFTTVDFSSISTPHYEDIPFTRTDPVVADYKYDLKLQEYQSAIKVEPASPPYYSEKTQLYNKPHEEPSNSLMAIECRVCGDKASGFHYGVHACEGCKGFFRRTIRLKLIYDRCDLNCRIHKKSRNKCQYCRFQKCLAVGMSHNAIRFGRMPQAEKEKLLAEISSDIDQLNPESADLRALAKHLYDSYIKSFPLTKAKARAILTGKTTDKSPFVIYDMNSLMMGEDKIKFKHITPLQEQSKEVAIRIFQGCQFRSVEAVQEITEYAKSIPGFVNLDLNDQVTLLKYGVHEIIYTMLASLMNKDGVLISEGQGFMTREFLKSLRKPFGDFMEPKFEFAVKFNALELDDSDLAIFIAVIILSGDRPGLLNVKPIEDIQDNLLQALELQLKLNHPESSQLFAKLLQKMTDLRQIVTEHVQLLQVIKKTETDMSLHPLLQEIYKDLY
T1 sequence (P19793 1-462 partner): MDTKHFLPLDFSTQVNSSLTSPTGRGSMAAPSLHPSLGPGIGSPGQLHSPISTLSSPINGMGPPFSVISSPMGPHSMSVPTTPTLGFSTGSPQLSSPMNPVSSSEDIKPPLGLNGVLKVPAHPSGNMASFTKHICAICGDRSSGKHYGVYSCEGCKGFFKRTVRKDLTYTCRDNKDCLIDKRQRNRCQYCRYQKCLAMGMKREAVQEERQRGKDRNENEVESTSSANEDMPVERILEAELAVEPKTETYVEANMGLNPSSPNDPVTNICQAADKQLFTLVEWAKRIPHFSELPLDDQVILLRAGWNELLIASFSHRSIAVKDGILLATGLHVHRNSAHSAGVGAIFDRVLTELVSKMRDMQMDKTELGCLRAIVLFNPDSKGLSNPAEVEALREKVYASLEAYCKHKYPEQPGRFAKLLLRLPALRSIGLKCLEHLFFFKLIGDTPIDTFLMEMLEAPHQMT
Method: as §1, §2, §3

[1] = 100 mg/kg daily oral gavage 7 days, versus vehicle

`C=Cc1cccc(-c2nc(CCOc3ccc(OC(C)(C)C(=O)O)cc3)c(C)o2)c1` [Example 10A, 2-Methyl-2-(4-{2-[5-methyl-2-(3-vinylphenyl)oxazol-4-yl]ethoxy}phenoxy)propionic acid] gave a melting point of 137 to 139 °C.

For `Cc1c(C)c2c(c(C)c1O)CCC(C)(COc1ccc(CC3SC(=O)NC3=O)cc1)O2` (centres unmarked) [Troglitazone, reference compound], the “huPPARα CTF Eff. (%)” value (huPPARα) was 0%.

Work on `CCc1cc(OC(C)(C)C(=O)O)ccc1OCCc1nc(-c2ccccc2)oc1C` [Example 31A, 2-{3-Ethyl-4-[2-(5-methyl-2-phenyloxazol-4-yl)ethoxy]phenoxy}-2-methylpropionic acid] yielded a change in vivo at 30 mg/kg (HuapoAI transgenic mice) of 98%, an inhibition in vivo at 30 mg/kg (HuapoAI transgenic mice) of -6.4% and an inhibition in vivo at 30 mg/kg (db/db mice) of 19%.

For `Cc1oc(-c2ccccc2)nc1CCOc1ccc(OC(C)(Cc2ccccc2)C(=O)O)cc1` (centres unmarked) [Example 6, 2-Methyl-2-{4-[2-(5-methyl-2-phenyloxazol-4-yl)ethoxy]phenoxy}-3-phenylpropionic acid], the change in vivo at 30 mg/kg (HuapoAI transgenic mice) was 20%, the inhibition in vivo at 30 mg/kg (HuapoAI transgenic mice) was 35.4% and the inhibition in vivo at 30 mg/kg (db/db mice) was 65%.

Molecule `Cc1oc(-c2ccccc2)nc1COc1ccc(OC(C)(C)C(=O)O)cc1` [Example 4, 2-Methyl-2-[4-(5-methyl-2-phenyloxazol-4-ylmethoxy)phenoxy]propionic acid] has a melting point of 136 to 138 °C.

For `CC(C)OC(=O)C(C)(C)Oc1ccc(C(=O)c2ccc(Cl)cc2)cc1` [fenofibrate, reference compound], the HDLc peak area (HuapoAI transgenic mice; 100 mg/kg daily oral gavage 7 days, FPLC of pooled sera, vehicle 47-62 v-sec) was 68-96 v-sec, the “mean elevation of total serum cholesterol” value (HuapoAI transgenic mice; [1]) was 41% and the “mean percent increase of HDLc” value (HuapoAI transgenic mice; [1]) was 48%. For the same molecule, the “mean reduction of triglycerides” value (HuapoAI transgenic mice; [1]) was 37%, the average triglycerides values (HuapoAI transgenic mice; 100 mg/kg daily oral gavage 7 days, vehicle 60-80 mg/dl) was 33 to 58 mg/dL and the “average total serum cholesterol values” (HuapoAI transgenic mice; 100 mg/kg daily oral gavage 7 days, vehicle 140-180 mg/dl) was 190 to 280 mg/dL.

With `CC(C)(Oc1ccc(C(=O)c2ccc(Cl)cc2)cc1)C(=O)O` [Fenofibric acid, reference compound] the “huPPARα CTF Eff. (%)” value (huPPARα) was 16% and the “huPPARγ CTF Eff. (%)” value (huPPARγ) was 0%.
